According to ChEMBL document CHEMBL1128901, “C-Attached aminoalkylindoles: potent cannabinoid mimetics” (Bioorg Med Chem Lett, 1996):

Assays:
[1] = organism: Mus musculus; assay: In vitro inhibition of electrically induced contractions in isolated mouse vas deferens (MVD) preparations.; type: functional
[2] = target: Cannabinoid receptor (Rattus norvegicus, UniProt Q9QZN9+P20272); assay: Compound was evaluated for the inhibition of [3H]WIN-55212-2 binding in rat cerebellum membranes; type: cell membranes, Membrane
[3] = target: T1, Cannabinoid receptor (Rattus norvegicus) (UniProt Q9QZN9+P20272); assay: Compound was evaluated for the inhibition of [3H]WIN-55212-2 binding in rat cerebellum membranes at the concentration 1000 nM; type: cell membranes; conditions: Membrane
[4] = target: T1, Cannabinoid receptor (Rattus norvegicus); assay: Compound was evaluated for the inhibition of [3H]WIN-55212-2 binding in rat cerebellum membranes at the concentration 3000 nM; type: cell membranes; conditions: Membrane

T1 sequence (P20272 whole entry, looked up): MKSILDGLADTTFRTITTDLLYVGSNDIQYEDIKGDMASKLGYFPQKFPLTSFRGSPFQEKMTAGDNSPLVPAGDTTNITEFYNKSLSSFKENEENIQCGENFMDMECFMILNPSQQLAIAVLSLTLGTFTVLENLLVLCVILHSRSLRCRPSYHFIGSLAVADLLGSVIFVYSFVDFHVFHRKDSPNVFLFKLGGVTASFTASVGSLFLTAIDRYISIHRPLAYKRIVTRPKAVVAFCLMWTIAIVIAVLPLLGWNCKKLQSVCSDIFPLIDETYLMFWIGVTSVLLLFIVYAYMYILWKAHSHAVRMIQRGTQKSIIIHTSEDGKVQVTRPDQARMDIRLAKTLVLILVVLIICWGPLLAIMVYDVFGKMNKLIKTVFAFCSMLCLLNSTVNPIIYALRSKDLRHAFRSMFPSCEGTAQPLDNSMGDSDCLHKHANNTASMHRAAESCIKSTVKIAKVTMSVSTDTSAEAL
T1 sequence (Q9QZN9 whole entry, looked up): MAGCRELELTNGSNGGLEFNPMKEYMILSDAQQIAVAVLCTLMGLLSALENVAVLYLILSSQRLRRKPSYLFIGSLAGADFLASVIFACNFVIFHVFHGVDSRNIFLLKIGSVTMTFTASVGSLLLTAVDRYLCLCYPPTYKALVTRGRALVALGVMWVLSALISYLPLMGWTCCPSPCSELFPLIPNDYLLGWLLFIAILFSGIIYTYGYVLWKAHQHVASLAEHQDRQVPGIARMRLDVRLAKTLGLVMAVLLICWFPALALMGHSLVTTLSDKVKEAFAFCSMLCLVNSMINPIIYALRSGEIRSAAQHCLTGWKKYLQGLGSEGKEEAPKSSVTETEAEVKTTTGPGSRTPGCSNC

| Compound | IC50 [1] [nM] | IC50 [2] [nM] | also measured |
| --- | --- | --- | --- |
| CCN1CCCC1Cn1c(C)c(C(=O)c2ccc(OC)cc2)c2ccccc21 (centres undefined) | > 10000 |  |  |
| Cc1c(C(=O)c2cccc3ccccc23)c2ccccc2n1CC1CCCN1C (centres undefined) | 2.4 | 6.5 |  |
| COc1ccc(C(=O)c2c(C)n(CC3CCCCN3C)c3ccccc23)cc1 (centres undefined) | 134 | 699 |  |
| COc1ccc(C(=O)c2c(C)n(CC3CSCCN3C)c3ccccc23)cc1 (centres undefined) | 1150 |  | inhibition [3]: 40% |
| COc1ccc(C(=O)c2c(C)n(CC3CN(C)CCO3)c3ccccc23)cc1 (centres undefined) | > 10000 |  |  |
| COc1ccc(C(=O)c2c(C)n(CCC3CCCCN3C)c3ccccc23)cc1 (centres undefined) | > 10000 |  |  |
| CN1CCOCC1Cn1cc(C(=O)c2cccc3ccccc23)c2ccccc21 (centres undefined) | 0.4 | 3 |  |
| O=C(c1cccc2ccccc12)c1cn(CC2CCCCN2)c2ccccc12 (centres undefined) | 3 | 6.6 |  |
| COc1ccc(C(=O)c2c(C)n(CC3CN(C)CCN3C)c3ccccc23)cc1 (centres undefined) | 1430 |  | inhibition [3]: -8% |
| COc1ccc(C(=O)c2c(C)n(C[C@H]3CCCN3C)c3ccccc23)cc1 |  |  | Inhibition [1]: 80%; inhibition [3]: 7% |
| COc1ccc(C(=O)c2c(C)n(C3CCCN(C)C3)c3ccccc23)cc1 (centres undefined) |  |  | Inhibition [1]: 80% |
| COc1ccc(C(=O)c2c(C)n(CC3CCCN3C)c3ccccc23)cc1 (centres undefined) | 63 |  | inhibition [3]: 53% |
| COc1ccc(C(=O)c2c(C)n(CC3CCCN(C)C3)c3ccccc23)cc1 (centres undefined) | > 10000 |  |  |
| O=C(c1cccc2ccccc12)c1cn(CCN2CCOCC2)c2ccccc12 |  | 7.8 |  |
| COc1ccc(C(=O)c2c(C)n(CC3COCCN3C)c3ccccc23)cc1 (centres undefined) | 210 |  | inhibition [4]: 43% |
| CN1CCCCC1Cn1cc(C(=O)c2cccc3ccccc23)c2ccccc21 (centres undefined) | 0.47 | 1.22 |  |
| CN1CCN(C)C(Cn2cc(C(=O)c3cccc4ccccc34)c3ccccc32)C1 (centres undefined) | 15 | 51 |  |
| COc1ccc(C(=O)c2cn(CC3CCCCN3C)c3ccccc23)cc1 (centres undefined) | 2.6 | 9.7 |  |
| COc1ccc(C(=O)c2c(C)n(CC3C[S+]([O-])CCN3C)c3ccccc23)cc1 (centres undefined) | > 10000 |  | inhibition [3]: -10% |
| COc1ccc(C(=O)c2c(C)n(C[C@@H]3CCCN3C)c3ccccc23)cc1 | 37 | 497 |  |
| COc1ccc(C(=O)c2c(C)n(C3CCN(C)CC3)c3ccccc23)cc1 | > 10000 |  |  |
| Cc1c(C(=O)c2cccc3ccccc23)c2ccccc2n1CC1CCCCN1C (centres undefined) | 1.2 | 5.4 |  |
| COc1ccc(C(=O)c2cn(CC3CCCN3C)c3ccccc23)cc1 (centres undefined) | 8 |  |  |
| COc1ccc(C(=O)c2c(C)n(CC3CCCN3)c3ccccc23)cc1 (centres undefined) | 220 |  |  |
